Entries after “also recorded” stand apart in the source; their conditions may differ.
Experiments:
[1] = system: GIPR^dn transgenic (tg) and control (wt) pigs; experiment: GIP/Exendin-4 stimulation test in 10- to 13-week-old pigs; assay type: in vivo, pig; conditions: for insulinotropic effect in GIPR^dn transgenic pigs compared to controls: 10- to 13-week-old (eleven-week-old) pigs, intravenously administrated with glucose
From the text: (§1) For the oral glucose tolerance test (OGTT), one central venous catheter (Cavafix® Certo®, B. Braun, Melsungen, Germany) was inserted non-surgically into the external jugular vein under general anesthesia according to the manufacturer's instructions. For accomplishment of the GIP/Exendin-4 stimulation test as well as the intravenous glucose tolerance test, two central venous catheters (Cavafix® Certo®, B. Braun) were surgically inserted into the external jugular vein under general anesthesia using a modified method of Moritz et al. (24). At the start of the study period, all animals had fully recovered from the surgical procedure as evaluated by normal behavior and food intake.
(§2) The OGTT was performed in 11-week old and 5-month-old non-restrained, freely moving animals. After an 18-h overnight fast, animals were fed 2 g/kg BW glucose (25) mixed with 100 g of commercial pig fodder (Deuka primo care in 11-week-old pigs; Deuka porfina U in 5-month-old pigs; Deuka, Düsseldorf, Germany). The meal was eaten from a bowl under supervision. Blood samples were obtained from the jugular vein catheter at −10, 0, 15, 30, 45, 60, 90 and 120 minutes relative to the glucose load in 11-week-old pigs and at −15, −5, 0, 15, 30, 45, 60, 90, 120, 150 and 180 minutes relative to the glucose load in 5-month-old pigs. Serum glucose levels were determined using an AU 400 autoanalyzer (Olympus, Hamburg, Germany) while serum insulin levels were measured in duplicate using a porcine insulin radioimmunoassay (RIA) kit (Millipore, Billerica, USA) according to the manufacturer's instructions.
(§3) The GIP/Exendin-4 stimulation test was performed in 10- to 13-week old and 7-months-old (28-36 weeks) non-restrained freely moving animals. In 7-months-old animals, 0.5 g glucose/kg BW were administered intravenously as a bolus of concentrated 50% glucose solution following an 18-hour fasting period (26). After three minutes 20 pmol/kg BW of synthetic porcine GIP (Bachem, Weil am Rhein, Germany) or 10 pmol/kg BW of synthetic Exendin-4 (Bachem) were administered intravenously. Blood samples were collected −15, 0, 1, 3, 6, 9, 11, 13, 18, 23, 28, 33, 48 and 60 minutes relative to the glucose load. In 10- to 13-week-old animals, 0.5 g glucose/kg BW were administered intravenously as a bolus of concentrated 50% glucose solution following an 18-hour fasting period (26). Right after glucose administration 80 pmol/kg BW of synthetic porcine GIP (Bachem, Weil am Rhein, Germany) or 40 pmol/kg BW of synthetic Exendin-4 (Bachem) were administered intravenously. […]
(§4) All data are presented as means±SEM. […] Data from the GIP/Exendin-4 stimulation tests in 10- to 13-week-old animals as well as from proliferation index (Ki67 immunohistochemistry) were analyzed using ANOVA (analysis of variance) (SAS). […]

[2] = system: GIPR^dn transgenic (tg) and control (wt) pigs; experiment: GIP/Exendin-4 stimulation test in 7-months-old (28-36 weeks) pigs; assay type: in vivo, pig; conditions: 28- to 36-week-old; for insulin secretion compared to glucose administration alone: 10 pmol/kg BW Exendin-4 i.v. 3 min after i.v. glucose, p<0.05
From the text: as §1, §2, §3, §4

Row | Substance | insulinotropic effect in GIPR^dn transgenic pigs compared to controls [1] | insulin secretion in GIPR^dn transgenic pigs compared to controls ([1]; 10- to 13-week-old pigs, 40 pmol/kg BW Exendin-4 i.v. together with 0.5 g/kg i.v. glucose, p<0.01) | insulin secretion compared to glucose administration alone ([2]; GIPR^dn transgenic pigs) | insulin secretion compared to glucose administration alone ([2]; control pigs) | serum insulin levels in control pigs compared to GIPR^dn transgenic pigs ([1]; 10- to 13-week-old pigs, 80 pmol/kg BW GIP i.v. together with 0.5 g/kg i.v. glucose) | increase in glucose-induced insulin concentration (Δ insulin) ([2]; GIPR^dn transgenic pigs, 20 pmol/kg BW GIP i.v. 3 min after 0.5 g/kg i.v. glucose, glucose alone 7 μU/ml) | increase in i.v. glucose-induced serum insulin concentration (Δ insulin) ([2]; control (wt) pigs, 20 pmol/kg BW GIP i.v. 3 min after 0.5 g/kg i.v. glucose, glucose alone 27 μU/ml)
1 | Exendin-4 | enhanced | increased insulin secretion; also recorded: significantly higher increase | significant stimulation; also recorded: significant increase | significant increase |  |  | 
2 | glucose-dependent insulinotropic polypeptide [GIP] | blunted; also recorded: impaired |  |  |  | significantly (p<0.01) higher insulin levels | 11 μU/ml | 58 μU/ml
